Experimental data from publication PMC4138103 (PLoS ONE, 2014).

System: Sprague-Dawley rats
Experiment: Bone biomechanics, three-point bending test of tibial shaft
Type: in vivo, Rattus norvegicus
Set-up: key to Dose response: Biomechanics, diaphysis, Yield Force: D: significant dose response (for results, see Table 2); T: significant trend
Procedure: For biomechanical testing hind limbs were defrosted and tibial shafts tested with a three-point bending test using a custom made testing apparatus, [34]. Each bone was placed on a support with a span length of 13 mm and bending load was applied with a constant speed of 0.155 mm/sec until failure. The breaking force, bending stiffness and yield force were defined from load-displacement data. Stiffness was calculated as the slope of the linear part of load-displacement curve. Yield force was defined as a corresponding force where the fit for stiffness separated from the measured load-displacement curve. The breaking force was defined as bending load at maximum. Corresponding to these forces also both failure and yield deformations were evaluated.
Data were also analyzed using the BMD method, which is based on dose-response modeling of the full data set using a nested family of exponential and Hill models. The analyses were done on data of males and females combined, using sex as a covariate. […] In that case, different Critical Effect Doses (CEDs) and CEDs at the lowest bound of the confidence interval (CED-L) were generated for each sex. If no difference between sexes is detected, a CED and CED-Ls for the combined data is generated. However, this was also done if the curve fits are close, and separate analyses for males and females were then performed manually. CEDs and CED-Ls were calculated at the predefined Critical Effect Size (CES) of 5% (EFSA standard) or 10%.

[1] = tibia, females, total dose 3 mg/kg bw
[2] = tibia, females, total dose 10 mg/kg bw
[3] = tibia, females, total dose 30 mg/kg bw
[4] = tibia, females, total dose 100 mg/kg bw
[5] = tibia, females, total dose 300 mg/kg bw
[6] = tibia, females, total dose 1000 mg/kg bw
[7] = tibia, females, total dose 1700 mg/kg bw
[8] = tibia, males, total dose 3 mg/kg bw
[9] = tibia, males, total dose 10 mg/kg bw
[10] = tibia, males, total dose 30 mg/kg bw
[11] = tibia, males, total dose 100 mg/kg bw
[12] = tibia, males, total dose 300 mg/kg bw
[13] = tibia, males, total dose 1000 mg/kg bw
[14] = tibia, males, total dose 1700 mg/kg bw

## Clc1cc(Cl)c(-c2cc(Cl)c(Cl)c(Cl)c2Cl)cc1Cl [PCB 180, 2,2′,3′,4,4′,5,5′-heptachlorobiphenyl]
females, CES 10%, total dose based
  F yield, CED-L: 547 mg/kg bw
females, adipose tissue concentration based
  Yield force of tibial shaft, CED: 2860 µg/g lipid
[1]
  Biomechanics, diaphysis: Ultimate Deformation: 0.601 mm
  Biomechanics, diaphysis: Ultimate Force: 108 N
  Biomechanics, diaphysis: Yield Deformation: 0.291 mm
  Biomechanics, diaphysis: Yield Force: 72.2 N
[2]
  Biomechanics, diaphysis: Ultimate Deformation: 0.634 mm
  Biomechanics, diaphysis: Ultimate Force: 106 N
  Biomechanics, diaphysis: Yield Deformation: 0.295 mm
  Biomechanics, diaphysis: Yield Force: 65.9 N
[3]
  Biomechanics, diaphysis: Ultimate Deformation: 0.763 mm
  Biomechanics, diaphysis: Ultimate Force: 112 N
  Biomechanics, diaphysis: Yield Deformation: 0.378 mm
  Biomechanics, diaphysis: Yield Force: 81.2 N
[4]
  Biomechanics, diaphysis: Ultimate Deformation: 0.622 mm
  Biomechanics, diaphysis: Ultimate Force: 100 N
  Biomechanics, diaphysis: Yield Deformation: 0.360 mm
  Biomechanics, diaphysis: Yield Force: 79.7 N
[5]
  Biomechanics, diaphysis: Ultimate Deformation: 0.640 mm
  Biomechanics, diaphysis: Ultimate Force: 104 N
  Biomechanics, diaphysis: Yield Deformation: 0.341 mm
  Biomechanics, diaphysis: Yield Force: 76.7 N
[6]
  Biomechanics, diaphysis: Ultimate Deformation: 0.645 mm
  Biomechanics, diaphysis: Ultimate Force: 105 N
  Biomechanics, diaphysis: Yield Deformation: 0.316 mm
  Biomechanics, diaphysis: Yield Force: 71.4 N
[7]
  Biomechanics, diaphysis: Ultimate Deformation: 0.691 mm
  Biomechanics, diaphysis: Ultimate Force: 109 N
  Biomechanics, diaphysis: Yield Deformation: 0.276 mm
  Biomechanics, diaphysis: Yield Force: 60.4 N
tibia, females, total doses 0-1700 mg/kg bw
  Dose response: Biomechanics, diaphysis, Yield Force: D
[8]
  Biomechanics, diaphysis: Ultimate Deformation: 0.888 mm
  Biomechanics, diaphysis: Ultimate Force: 123 N
  Biomechanics, diaphysis: Yield Deformation: 0.423 mm
  Biomechanics, diaphysis: Yield Force: 84.8 N
[9]
  Biomechanics, diaphysis: Ultimate Deformation: 0.727 mm
  Biomechanics, diaphysis: Ultimate Force: 131 N
  Biomechanics, diaphysis: Yield Deformation: 0.333 mm
  Biomechanics, diaphysis: Yield Force: 71.9 N
[10]
  Biomechanics, diaphysis: Ultimate Deformation: 0.704 mm
  Biomechanics, diaphysis: Ultimate Force: 122 N
  Biomechanics, diaphysis: Yield Deformation: 0.346 mm
  Biomechanics, diaphysis: Yield Force: 78.4 N
[11]
  Biomechanics, diaphysis: Ultimate Deformation: 0.786 mm
  Biomechanics, diaphysis: Ultimate Force: 130 N
  Biomechanics, diaphysis: Yield Deformation: 0.395 mm
  Biomechanics, diaphysis: Yield Force: 87.0 N
[12]
  Biomechanics, diaphysis: Ultimate Deformation: 0.758 mm
  Biomechanics, diaphysis: Ultimate Force: 132 N
  Biomechanics, diaphysis: Yield Deformation: 0.295 mm
  Biomechanics, diaphysis: Yield Force: 69.0 N
[13]
  Biomechanics, diaphysis: Ultimate Deformation: 0.772 mm
  Biomechanics, diaphysis: Ultimate Force: 120 N
  Biomechanics, diaphysis: Yield Deformation: 0.446 mm
  Biomechanics, diaphysis: Yield Force: 93.0 N
[14]
  Biomechanics, diaphysis: Ultimate Deformation: 0.769 mm
  Biomechanics, diaphysis: Ultimate Force: 118 N
  Biomechanics, diaphysis: Yield Deformation: 0.346 mm
  Biomechanics, diaphysis: Yield Force: 81.2 N
